From patent US20050059610A1 (priority 2003, published 2005)
Entries after “also recorded” stand apart in the source; their conditions may differ.

How the values were obtained:
[1] = system: polymicrobial sepsis and peritonitis (CLP); experiment: CLP peritonitis/polymicrobial sepsis, GLN 30 minutes after induction, with or without quercetin; type: in vivo, rat
Description: Cecal ligation and puncture (CLP) in the rat was chosen as the appropriate model.

[2] = system: onset of ischemia (1 mm of ST depression); experiment: Exercise stress test in patients with chronic stable angina, crossover trial; type: in vivo, human; conditions: oral GLN 80 mg/kg 40 minutes prior to exercise stress test; 17 patients; vs placebo
Description: Patients were then crossed over following a one-week interval.

[3] = system: HSP 72; experiment: HSP expression in heart and lung tissue of unstressed rats (Western blot); type: in vivo, rat
Experimental: (§1) GLN enhances heat shock protein expression in the unstressed and stressed myocardium. […] The increase was also observed for HSP 27 (another of the protective heat shock proteins) wherein the induction occurred as early as 4-6 hours and persisted for up to 48-72 hours.
Tissues were then harvested four hours post-GLN administration, and HSP 72 expressions were analyzed by Western blot. The image shown is representative of those obtained in four different experiments. The graph represents a percent increase in HSP 72 over control. […] (*p<0.001, **p<0.01, ***p<0.05 compared to control by ANOVA.)

[4] = in vivo; cited from earlier work
[5] = system: polymicrobial sepsis (2CLP); experiment: Cecal-ligation and double-puncture (2CLP) sepsis: survival, cytokines, lung HSP 72; type: in vivo, Sprague-Dawley rats
Description: Further, increased Interleukin-18 (IL-18) levels appear to play a critical role in cytokine-induced organ failure and can be predictive of mortality in sepsis patients.
Increased Interleukin-18 (IL-18) levels appear to play a critical role in cytokine-induced organ failure and can be predictive of mortality in sepsis patients.

[6] = system: endotoxin-induced sepsis; experiment: Lethal endotoxemia: survival, HSP expression, cytokine release; type: in vivo, rat; conditions: GLN concurrently with lethal doses of endotoxin
Experimental: Evaluation of pro-inflammatory cytokine release was also assessed following endotoxemia.

[7] = system: sepsis (CLP); experiment: CLP with or without quercetin (HSP 70 inhibitor): survival, lung HSP/NOS, metabolism, TNF; type: in vivo, Sprague-Dawley rats
Experimental: Methods: Male Sprague-Dawley rats were divided into 5 groups. Two groups were treated with 400 mg/kg of quercetin (Q) IP (HSP 70 inhibitor) 6 hours pre-CLP. […] The final group (CONT, n=6) received no treatment. Five-day survival was monitored. In separate studies, lung was harvested 24-hours post-CLP and tissue metabolism analyzed by 31P- and 1H-MRS. A final study analyzed blood for TNF- at 6 hours post-CLP and lung tissue 6 hours post-CLP for HSP-70, iNOS, eNOS, and activated heat shock factor-1 (HSF-1).

[8] = system: myocardial ischemia/reperfusion injury
[9] = system: cardiomyocytes; experiment: Ischemia/reperfusion injury of isolated cardiomyocytes; type: cell-based
Experimental: Spontaneously contracting cardiomyocytes were studied.
Cardiomyocytes were allowed to equilibrate at baseline normoxic conditions for 60 minutes.

[10] = system: HSP 72 and 27; experiment: HSP expression in hearts of LPS-injured rats (Western blot); type: in vivo, rat; conditions: 0.75 g/kg GLN with 5 mg/kg LPS; six hours; vs LR control
Experimental: as §1
Tissues were harvested six hours post-LPS injury and analyzed for HSP 72 expression via Western blot. Each lane represents protein extracts from a separate animal. Relative densitometry are expressed as means ±SE. *−p<0.0005, compared with LR resuscitation alone assessed by Students t test.

[11] = system: heatstroke; experiment: Experimental heatstroke in the rat, oral GLN; type: in vivo, Sprague-Dawley Rats
Experimental: Heatstroke was performed in anesthetized rats (ketamine/xylazine) by heating animals to 42 deg C. (rectal temperature) for 30 minutes. Survival was analyzed for five days post-heatstroke. In a separate set of animals, HSP 70 and Heat Shock Factor-1 activation (HSF-1) were analyzed at 1-hour and 24-hours post-heatstroke in heart and lung tissue via western blot (n=10/group). Statistical analysis was performed via Fischer's Exact Test for survival and ANOVA with Duncan grouping as post-hoc test for HSP-70 and HSF-1 expression.

[12] = system: experimental SIRS (CLP); experiment: Serum HSP72 (ELISA) and survival after CLP (experimental SIRS); type: in vivo, Sprague-Dawley rats
[13] = system: infection in patients following bone marrow transplantation; conditions: parenteral nutritional program supplemented with glutamine (Calder and Yapoob 1999); cited from earlier work
[14] = system: intestinal epithelial cells; experiment: Protection of cells against heat and oxidant stress; type: cell-based
Description: This was proven when blockade of HSP 70 expression via quercetin (inhibits HSF-1 binding) and via direct antisense inhibition of the HSP-70 gene (FIG. 12).

[15] = system: serum HSP 70; experiment: Serum HSP-70 levels in critically ill patients (surgical ICU), GLN vs control; type: in vivo, human; conditions: for Baseline HSP-70 / LN(Baseline HSP-70): before treatment
[16] = GLN 30 minutes after induction of peritonitis and sepsis
[17] = GLN 0.75 g/kg IV one-hour post-CLP, 6 hours post-CLP
[18] = five days of oral GLN prior to heatstroke
[19] = non-pancreatic diagnoses, n = 7

NC(=O)CC[C@H](N)C(=O)O [GLN, Glutamine]
serum HSP 70 expression ([1]; CLP model, rat): markedly enhanced; also recorded: approximate four-fold increase
deficient lung HSP 70 expression [1, 16]: markedly enhanced
lung HSF-1 activation [1, 16]: markedly enhanced
NAD+/NADH levels in lung tissue ([1]; following sepsis and peritonitis): nearly doubling
survival following peritonitis and polymicrobial sepsis ([1]; rat, in vivo): significantly improve survival; also recorded: doubling of survival
onset of ST depression [2]: significant delay
HSP 27 induction, earliest occurrence ([3]; unstressed rat heart): 4 to 6 h
HSP 27 induction, persistence up to ([3]; unstressed rat heart): 48 to 72 h
HSP 70 and HSP 25 in heart and lung tissue ([3]; unstressed rats): enhance
HSP 72 expression in heart and lung tissue vs control (densitometry) ([3]; unstressed rats, GLN 0.15, 0.45, 0.75 g/kg over 12-15 minutes, tissue four hours post-GLN): significantly enhanced; also recorded: significantly increased
half-life [4]: 6 h
expression of IL-18 ([5]; 12, 18, and 24 hours post-2CLP): significantly attenuated
expression of IL-6 ([5]; 6 hours post-2CLP): attenuated
expression of TNF-α ([5]; 6 hours post-2CLP): attenuated
lung HSP 72 expression versus control ([5]; following 2CLP): enhanced
5-day mortality rate following 2CLP ([5]; single dose GLN 0.75 g/Kg one hour following surgery, control 78%): 42%
HSP 70 and 23 following lethal endotoxemia [6]: enhanced
mortality following lethal endotoxemia [6]: reduced mortality
lung NAD+ ([7]; 24-hours post-CLP, MRS): improved
lung lactate accumulation ([7]; 24-hours post-CLP, MRS): attenuated
lung eNOS ([7]; 6 hours post-CLP): enhanced
lung iNOS ([7]; 6 hours post-CLP): attenuated
plasma TNF- expression ([7]; 6 hours post-CLP): attenuated
5-day survival ([7]; GLN 0.75 g/kg IV one-hour post-CLP): significant improvement
lung HSF-1 activation [7, 17]: enhanced
lung HSP70 expression [7, 17]: enhanced
recovery of cardiac flow following reperfusion ([8]; 0.75 g/kg alanine-glutamine (0.52 g/kg glutamine) IP 18 hours prior, pre-load 8 and 12 mmHg): significantly improved
percent recovery of coronary flow ([8]; 60 minutes following reperfusion, 0.52 g/kg GLN 18 hours prior): significantly enhanced
post-I/R cardiac output ([8]; single dose 18 hours prior to 15 minutes of no flow ischemia): significant improvement
HSP 72 content (western blot) vs cells not receiving GLN ([9]; 10 mM GLN): significant increase
return of contractile function following I/R injury ([9]; 10 mM GLN): significantly enhanced
cell death from ischemia/reperfusion ([9]; 10 mM GLN one hour before and throughout ischemia and reperfusion, control 48%): 22%
HSP 72 and 27 expression in heart (western blot) [10]: markedly enhanced
HSF-1 activation ([11]; 1-hour and 24-hours post-heatstroke): No change
HSP 70 expression in heart and lung tissue ([11]; 1 hour post-heatstroke, versus unheated animals and heated controls): significantly enhanced
HSP 70 between GLN and control animals ([11]; 24 hours post-heatstroke): no significant difference
mortality following heatstroke ([11]; GLN 0.65 g/kg gavage twice a day for five days, 42 deg C. for 30 minutes, control 62.5%): 12.5%
HSP 70 expression in heart, lung, and colon tissue [11, 18]: enhanced
mortality from lethal heatstroke (in words) [11, 18]: significantly reduced
survival following experimental SIRS ([12]; 5 days, BSS 18%): 61%
sHSP72 vs. BSS (ELISA) ([12]; GLN (given as ALA-GLN) 0.75 g/Kg 1 hour post-CLP, 6 hours post-CLP): significantly enhanced
level of infection [13]: lower level of infection
protection of cells against heat and oxidant stress [14]: protection
HSP-70 levels at 1-week, higher than control patients by ([15]; 95% CI −0.01 to 5.64, p=0.050): 2.82 units
change in HSP-70 levels from baseline to 1-week, greater than control patients by ([15]; 95% CI −0.09 to 5.29, p=0.057): 2.60 units
1-week HSP-70 ([15]; all diagnoses, n = 15): 4.09 ± 4.70
HSP-70 change from baseline ([15]; all diagnoses, n = 15): 3.48 ± 4.53
LN(1-week HSP-70) ([15]; all diagnoses, n = 15): 0.56 ± 1.63
LN(1-wk HSP/Baseline HSP) ([15]; all diagnoses, n = 15): 1.93 ± 1.23
Baseline HSP-70 ([15]; all diagnoses, n = 15): 0.61 ± 1.05
LN(Baseline HSP-70) ([15]; all diagnoses, n = 15): −1.37 ± 1.26
enhancement of serum HSP levels versus iso-nitrogenous control solution ([15]; intravenous GLN, mixed critically ill patients, surgical ICU): four-fold enhancement
1-week HSP-70 [15, 19]: 3.43 ± 5.17
HSP-70 change from baseline [15, 19]: 2.60 ± 4.77
LN(1-week HSP-70) [15, 19]: 0.20 ± 1.70
LN(1-wk HSP/Baseline HSP) [15, 19]: 1.63 ± 1.21
Baseline HSP-70 [15, 19]: 0.83 ± 1.48
LN(Baseline HSP-70) [15, 19]: −1.43 ± 1.58
